Reference: paper PMC9883826 (Scientific Reports, 2023)
Converted amounts (≈) assume the structure as drawn. “Also recorded” adds a separate entry of the source. Where a name gives a salt, the structure may show the parent alone. Read-outs that look alike come from different tables or passages of the source.

How the values were obtained:
[1] = test system: DENV-2 (dengue virus-2); settings: cited from earlier work
[2] = test system: MDCK cells; settings: dog
[3] = test system: influenza A/Egypt/NRC098/2019(H1N1); assay: microbe, parasite or virus in culture; type: cell-based, influenza A virus; settings: for IC50: Influenza A virus, H1N1, MDCK
[4] = in vitro; settings: dog
[5] = test system: influenza A/chicken/Egypt/N12640A/2016(H5N1); assay: microbe, parasite or virus in culture; type: cell-based, influenza A virus
[6] = test system: influenza A/H5N1 virus; assay: microbe, parasite or virus in culture; type: cell-based
[7] = test system: influenza A/H5N1 virus; assay: microbe, parasite or virus in culture; type: cell-based; remark: listed apart in the source
[8] = test system: influenza A/H5N1 virus; assay: microbe, parasite or virus in culture; type: cell-based; settings: H5N1, read-out: Viral inhibition (%) Mean
[9] = test system: influenza A/H1N1 virus; assay: microbe, parasite or virus in culture; type: cell-based; settings: H1N1, read-out: Viral inhibition (%) Mean
[10] = test system: influenza A/H5N1 virus; assay: microbe, parasite or virus in culture; type: cell-based; remark: listed apart in the source
[11] = test system: HSV-2; settings: cited from earlier work
[12] = test system: HSV-1; settings: cited from earlier work
[13] = test system: HSV-2; settings: cited from earlier work; remark: listed apart in the source
[14] = test system: severe acute respiratory syndrome coronavirus (SARS-CoV); settings: cited from earlier work
[15] = in vivo; cited from earlier work
[16] = Influenza A virus, H5N1, MDCK, 72 h
[17] = Influenza A virus, H5N1, read-out: Viral replication (%) viral inhibition
[18] = Influenza A virus, H5N1, read-out: Viral adsorption (%) viral inhibition
[19] = Influenza A virus, H5N1, MDCK, read-out: PIC50 H5N1
[20] = Influenza A virus, H5N1, read-out: Viricidal (%) viral inhibition

COc1ccc2c3ccnc(C)c3n(C)c2c1 [9 N methylharmine]
EC50 [1]: 3.2 ± 0.6 µM

NC12CC3CC(CC(C3)C1)C2 [Amantadine HCl, reference compound]
CC50 [2]: 1.103 mg/mL
Selectivity index (SI) [3]: 74.32
IC50 ([3]; 72 h): 14.9 µg/mL
CC50 [4]: 1100 µg/mL
Selectivity index (SI) [5]: 62.71
IC50 [5, 16]: 17.6 µg/mL

COc1cc2c(cc1OC)[C@@]13CCN4CC5=CCO[C@H]6CC(=O)N2[C@H]1[C@H]6[C@H]5C[C@H]43 [Brucine]
CC50 [4]: > 10000 µg/mL
anti-influenza activity against avian influenza A/H5N1 virus (in words) [5]: poor or no antiviral potential activity
IC50 [5, 16]: > 10000 µg/mL

CNC(=O)Oc1ccc2c(c1)[C@]1(C)CCN(C)[C@@H]1N2C [Eserine]
anti-influenza activity against human influenza A/H1N1 virus (in words) [3]: no antiviral activity
CC50 [4]: > 10000 µg/mL
anti-influenza activity against avian influenza A/H5N1 virus (in words) [5]: poor or no antiviral potential activity
IC50 [5, 16]: > 10000 µg/mL

COc1ccc2c3c([nH]c2c1)C(C)=NCC3 [Harmaline]
inhibition at 1 µg/mL [6, 17]: 28.3%
inhibition at 10 µg/mL [6, 17]: 40.3%
inhibition at 100 µg/mL [6, 17]: 48.7%
inhibition at 1 µg/mL [7, 18]: 34%
inhibition at 10 µg/mL [7, 18]: 46.2%
inhibition at 100 µg/mL [7, 18]: 51.8%
Selectivity index (SI) [3]: 8482
IC50 ([3]; 72 h): 0.056 µg/mL
IC50 ([3]; read-out: PIC50 H1N1): 20 nM
inhibition at 1 µg/mL [8]: 72.6%
inhibition at 10 µg/mL [8]: 87.7%
inhibition at 100 µg/mL [8]: 94.2%
CC50 [4]: 475 µg/mL (≈ 2.22 mM)
inhibition at 1 µg/mL [9]: 66.7%
inhibition at 10 µg/mL [9]: 77.8%
inhibition at 100 µg/mL [9]: 86.5%
Selectivity index (SI) [5]: 138
IC50 [5, 16]: 3.42 µg/mL
IC50 [5, 19]: 28100 nM
main stage of antiviral action: viricidal (in words) [10]: direct cell-free viricidal effect
inhibition at 1 µg/mL [10, 20]: 91%
inhibition at 10 µg/mL [10, 20]: 96.7%
inhibition at 100 µg/mL [10, 20]: 98.6%

CC1=NCCc2c1[nH]c1cc(O)ccc21 [Harmalol]
main stage of antiviral action: viral replication (in words) [6]: interference with the viral replication compartment
inhibition at 0.1 µg/mL [6, 17]: 87.5%
inhibition at 1 µg/mL [6, 17]: 96.9%
inhibition at 10 µg/mL [6, 17]: 98.7%
inhibition at 0.1 µg/mL [7, 18]: 60.3%
inhibition at 1 µg/mL [7, 18]: 74.5%
inhibition at 10 µg/mL [7, 18]: 82.1%
Selectivity index (SI) [3]: > 2.8*10^5
IC50 ([3]; 72 h): 0.035 µg/mL
IC50 ([3]; read-out: PIC50 H1N1): 20 nM
inhibition at 0.1 µg/mL [8]: 54.7%
inhibition at 1 µg/mL [8]: 73.3%
inhibition at 10 µg/mL [8]: 86.4%
CC50 [4]: > 10000 µg/mL
inhibition at 0.1 µg/mL [9]: 74.3%
inhibition at 1 µg/mL [9]: 79.6%
inhibition at 10 µg/mL [9]: 91.8%
Selectivity index (SI) [5]: > 5*10^5
IC50 [5, 16]: 0.02 µg/mL
IC50 [5, 19]: 21 nM
inhibition at 0.1 µg/mL [10, 20]: 41.5%
inhibition at 1 µg/mL [10, 20]: 50.9%
inhibition at 10 µg/mL [10, 20]: 58%

Cc1nccc2c1[nH]c1ccccc12 [Harmane]
EC50 [11]: 71.8 µg/mL (≈ 0.394 mM)
main stage of antiviral action: viral replication (in words) [6]: interference with the viral replication compartment
inhibition at 10 µg/mL [6, 17]: 83.3%
inhibition at 100 µg/mL [6, 17]: 97.5%
inhibition at 1000 µg/mL [6, 17]: 96.7%
inhibition at 10 µg/mL [7, 18]: 43.4%
inhibition at 100 µg/mL [7, 18]: 48.7%
inhibition at 1000 µg/mL [7, 18]: 61.4%
Selectivity index (SI) [3]: > 2.17*10^5
IC50 ([3]; 72 h): 0.033 µg/mL
IC50 ([3]; read-out: PIC50 H1N1): 18.2 nM
inhibition at 10 µg/mL [8]: 65.5%
inhibition at 100 µg/mL [8]: 74.4%
inhibition at 1000 µg/mL [8]: 85%
EC50 [12]: 4.90 µg/mL (≈ 0.0269 mM)
CC50 [4]: 7180 µg/mL (≈ 39.4 mM)
inhibition at 10 µg/mL [9]: 55.1%
inhibition at 100 µg/mL [9]: 74.4%
inhibition at 1000 µg/mL [9]: 84.6%
IC50 [5, 16]: 0.023 µg/mL
IC50 [5, 19]: 23 nM
inhibition at 10 µg/mL [10, 20]: 31.8%
inhibition at 100 µg/mL [10, 20]: 41.8%
inhibition at 1000 µg/mL [10, 20]: 82.1%

COc1ccc2c(c1)[nH]c1c(C)nccc12 [Harmine]
EC50 [13]: 1470 nM
CC50 [4]: > 10000 µg/mL
anti-influenza activity against avian influenza A/H5N1 virus (in words) [5]: poor or no antiviral potential activity; also recorded: no effect; also recorded: no anti-influenza activity
IC50 [5, 16]: > 10000 µg/mL

CC[C@@H](CO)NC(=O)[C@@H]1C=C2c3cccc4[nH]cc(c34)C[C@H]2N(C)C1 [Methyl ergometrine]
CC50 [4]: 8230 µg/mL (≈ 24.2 mM)
anti-influenza activity against avian influenza A/H5N1 virus (in words) [5]: poor or no antiviral potential activity
IC50 [5, 16]: > 1000 µg/mL

c1ccc2c(c1)[nH]c1cnccc12 [Norharmane]
CC50 [4]: > 10000 µg/mL
anti-influenza activity against avian influenza A/H5N1 virus (in words) [5]: poor or no antiviral potential activity; also recorded: no effect
IC50 [5, 16]: > 10000 µg/mL

COC(=O)[C@H]1[C@H]2C[C@@H]3c4[nH]c5cc(OC)ccc5c4CCN3C[C@H]2C[C@@H](OC(=O)c2cc(OC)c(OC)c(OC)c2)[C@@H]1OC [Reserpine]
anti-influenza activity against human influenza A/H1N1 virus (in words) [3]: moderate anti-influenza potential
EC50 [14]: 3.4 µM
CC50 [4]: 1400 µg/mL (≈ 2.3 mM)
Selectivity index (SI) [5]: > 33
anti-influenza activity against avian influenza A/H5N1 virus (in words) [5]: moderate anti-influenza activity
IC50 [5, 16]: 42.4 µg/mL

O=C1C[C@@H]2OCC=C3CN4CC[C@]56c7ccccc7N1[C@H]5[C@H]2[C@H]3C[C@H]46 [Strychnine Sulfate, Strychnine sulfate]
inhibition at 1 µg/mL [6, 17]: 19.4%
inhibition at 10 µg/mL [6, 17]: 27.3%
inhibition at 100 µg/mL [6, 17]: 42%
main stage of antiviral action: viral adsorption (in words) [7]: hindering IAV adsorption to the host cell (MDCK) receptors
inhibition at 1 µg/mL [7, 18]: 90.1%
inhibition at 10 µg/mL [7, 18]: 99.5%
inhibition at 100 µg/mL [7, 18]: 99%
Selectivity index (SI) [3]: > 1.67*10^5
IC50 ([3]; 72 h): 0.06 µg/mL
inhibition at 1 µg/mL [8]: 74.4%
inhibition at 10 µg/mL [8]: 84%
inhibition at 100 µg/mL [8]: 96.3%
CC50 [4]: > 10000 µg/mL
inhibition at 1 µg/mL [9]: 65.5%
inhibition at 10 µg/mL [9]: 71.6%
inhibition at 100 µg/mL [9]: 87.4%
IC50 [5]: 11.851 µg/mL
Selectivity index (SI) [5]: > 843
IC50 [5, 16]: 11.8 µg/mL
inhibition at 1 µg/mL [10, 20]: 29.4%
inhibition at 10 µg/mL [10, 20]: 37%
inhibition at 100 µg/mL [10, 20]: 49.2%

CC(=O)N[C@H]1[C@H]([C@H](O)[C@H](O)CO)OC(C(=O)O)=C[C@@H]1N=C(N)N [Zanamivir, reference compound]
Selectivity index (SI) [3]: > 3.4*10^4
IC50 ([3]; 72 h): 0.291 µg/mL
CC50 [4]: > 10000 µg/mL
Selectivity index (SI) [5]: > 1.26*10^5
IC50 [5, 16]: 0.079 µg/mL

O=C1C[C@@H]2OCC=C3CN4CC[C@]56c7ccccc7N1[C@H]5[C@H]2[C@H]3C[C@H]46 [strychnine]
high dose causing muscle contraction and convulsions that can lead to respiratory paralysis [15]: 1.5 mg/kg
